The results in this text go back to patent US7250413B2, “C-25 carbamate rifamycin derivatives with activity against drug-resistant microbes” (Cumbre Pharmaceuticals Inc., priority 2004, dated 2007).

Values after ≈ are worked out from the molar mass of the structure shown. Where two headings read alike, the source gives them in different places.

Common to all, as to assay: MIC, microbroth dilution
Holding throughout (format): cell-based
In general terms: In broth dilution the organism is exposed to a series of concentrations in liquid medium.

Test [1] has as its system Enterococcus faecalis ATCC29212. As to the method: (§1) Representative compounds were assayed for antimicrobial activity as follows: Minimum Inhibitory Concentrations (“MICs”) were determined by the microbroth dilution method as per NCCLS guidelines (National Committee for Clinical Laboratory Standards, 2000), except that all growth incubations were conducted at 37° C. Bacterial cultures were tested in the following bacteriological media: S. aureus, S. epidermidis, and E. coli in Cation-Adjusted Mueller-Hinton Broth, S. pneumoniae in THY Broth supplemented with 1 mg/mL catalase under 5% CO2 atmosphere, S. pyogenes in THY Broth, E. faecalis in BHI Broth, H. influenzae in BHI Broth supplemented with 0.75 μL of 1 mg/mL NAD and 150 μL of 1 mg/ml hematin per 5 mL, and M smegmatis in Middlebrook Broth plus ADC Enrichment.

The test system of test [2] is Staphylococcus aureus ATCC29213. Here is the method: as §1
Test [3] concerns Mycobacterium smegmatis ATCC700084. As to conditions: Mycolicibacterium smegmatis, ATCC700084; rifS; Middlebrook Broth plus ADC Enrichment, 37° C.; read-out: MIC. Here is the method: as §1
[4] abbreviates: rifS, BHI Broth, 37° C., read-out: MIC.
Where [5] appears, read: rifS, Cation-Adjusted Mueller-Hinton Broth, 37° C., read-out: MIC.

The term MIC denotes the smallest concentration in the dilution series that meets the test's criterion for growth inhibition.

Turning to `CO[C@H]1/C=C/O[C@@]2(C)Oc3c(C)c(O)c4c(c3C2=O)C(=O)C(N2CCOCC2)=C(NC(=O)/C(C)=C\C=C\[C@H](C)[C@H](O)[C@@H](C)[C@@H](O)[C@@H](C)[C@H](OC(=O)NCCC2CCCN2C)[C@@H]1C)C4=O` (some centres unmarked) [Example 31, 25-O-Desacetyl-(carbonyl-2-(1-methyl-pyrrolidin-2-yl)-ethylamine) 3-morpholino rifamycin S], the results for the MIC in test [1] (setting [4]), in test [2] (setting [5]) and in test [3] were 0.25 to 62 µg/mL (≈ 0.28 to 69.4 µM), 0.002 to 1.95 µg/mL (≈ 0.00224 to 2.18 µM) and 0.063 to 31 µg/mL, respectively.

Consider `CO[C@H]1/C=C/O[C@@]2(C)Oc3c(C)c(O)c4c(c3C2=O)C(=O)C(N2CCOCC2)=C(NC(=O)/C(C)=C\C=C\[C@H](C)[C@H](O)[C@@H](C)[C@@H](O)[C@@H](C)[C@H](OC(=O)N2CCC(N3CCCCC3)CC2)[C@@H]1C)C4=O` [Example 35, 25-O-Desacetyl-(carbonyl-[1,4′]bipiperidinyl) 3-morpholino rifamycin S], for which the MIC in test [1] (setting [4]) lay in the range of 0.25 to 62 µg/mL (≈ 0.268 to 66.4 µM); in test [2] (setting [5]), 0.002 to 1.95 µg/mL (≈ 0.00214 to 2.09 µM); in test [3] it was 0.063 to 31 µg/mL.

For `CO[C@H]1/C=C/O[C@@]2(C)Oc3c(C)c(O)c4c(c3C2=O)C(=O)C(N2CCOCC2)=C(NC(=O)/C(C)=C\C=C\[C@H](C)[C@H](O)[C@@H](C)[C@@H](O)[C@@H](C)[C@H](OC(=O)NCCCn2ccnc2)[C@@H]1C)C4=O` [Example 11, 25-O-Desacetyl-(1-carbonyl-3-imidazol-1-yl-propylamine) 3-morpholino rifamycin S], the MIC in test [1] (setting [4]) fell in the range of 0.25 to 62 µg/mL (≈ 0.281 to 69.7 µM); in test [2] (setting [5]), 0.002 to 1.95 µg/mL (≈ 0.00225 to 2.19 µM); in test [3], 0.063 to 31 µg/mL.

On to `CO[C@H]1/C=C/O[C@@]2(C)Oc3c(C)c(O)c4c(c3C2=O)C(=O)C(N2CCOCC2)=C(NC(=O)/C(C)=C\C=C\[C@H](C)[C@H](O)[C@@H](C)[C@@H](O)[C@@H](C)[C@H](OC(=O)NCc2cnc3ccccc3c2)[C@@H]1C)C4=O` [Example 41, 25-O-Desacetyl-(carbonyl-N-quinolin-3-yl-methylamino) 3-morpholino rifamycin S], for which the values for the MIC in test [1] (setting [4]), in test [2] (setting [5]) and in test [3] were 0.25 to 62 µg/mL (≈ 0.271 to 67.2 µM), 0.002 to 1.95 µg/mL (≈ 0.00217 to 2.11 µM) and 0.063 to 31 µg/mL, respectively.

On to `CO[C@H]1/C=C/O[C@@]2(C)Oc3c(C)c(O)c4c(c3C2=O)C(=O)C(N2CCOCC2)=C(NC(=O)/C(C)=C\C=C\[C@H](C)[C@@H]2OC(C)(C)O[C@@H]([C@@H](C)[C@H](OC(=O)n3cc[n+](Cc5ccccc5)c3)[C@@H]1C)[C@@H]2C)C4=O` [Example 5, 1-Benzyl-3-(25-O-desacetyl-(carbonyl-cyclic-21,23-(1-methylethylideneacetal) 3-morpholinorifamycin S))-3H-imidazol-1-ium], for which the results for the MIC in test [1] (setting [4]), in test [2] (setting [5]) and in test [3] were 0.25 to 62 µg/mL, 0.002 to 1.95 µg/mL and 0.063 to 31 µg/mL, respectively.

As for `CO[C@H]1/C=C/O[C@@]2(C)Oc3c(C)c(O)c4c(c3C2=O)C(=O)C(N2CCOCC2)=C(NC(=O)/C(C)=C\C=C\[C@H](C)[C@H](O)[C@@H](C)[C@@H](O)[C@@H](C)[C@H](OC(=O)N2CCN(c3c(F)cc5c(=O)c(C(=O)O)cn(C6CC6)c5c3Cl)CC2)[C@@H]1C)C4=O` [Example 17, 25-O-Desacetyl-(8-chloro-1-cyclopropyl-7-[4-(1-carbonyl)-piperazin-1-yl]-6-fluoro-4-oxo-1,4-dihydro-quinoline-3-carboxylic acid) 3-morpholino rifamycin S], the MIC in test [1] (setting [4]) fell in the range of 0.25 to 62 µg/mL (≈ 0.221 to 54.8 µM); in test [2] (setting [5]) it was 0.002 to 1.95 µg/mL (≈ 0.00177 to 1.72 µM); in test [3], 0.063 to 31 µg/mL.

`COc1c(N2CCN(C(=O)O[C@H]3[C@H](C)[C@H](O)[C@H](C)[C@@H](O)[C@@H](C)/C=C/C=C(/C)C(=O)NC4=C(N5CCOCC5)C(=O)c5c(c(O)c(C)c6c5C(=O)[C@@](C)(O/C=C/[C@H](OC)[C@H]3C)O6)C4=O)C(C)C2)c(F)cc2c(=O)c(C(=O)O)cn(C3CC3)c12` (some centres unmarked) [Example 28, 25-O-Desacetyl-(carbonyl-1-cyclopropyl-6-fluoro-8-methoxy-7-(3-methyl-piperazin-1-yl)-4-oxo-1,4-dihydro-quinoline-3-carboxylic acid) 3-morpholino rifamycin S]: the values for the MIC in test [1] (setting [4]), in test [2] (setting [5]) and in test [3] were 0.25 to 62 µg/mL (≈ 0.219 to 54.4 µM), 0.002 to 1.95 µg/mL (≈ 0.00175 to 1.71 µM) and 0.063 to 31 µg/mL, respectively.

As to `CO[C@H]1/C=C/O[C@@]2(C)Oc3c(C)c(O)c4c(c3C2=O)C(=O)C(N2CCOCC2)=C(NC(=O)/C(C)=C\C=C\[C@H](C)[C@@H]2OC(C)(C)O[C@@H]([C@@H](C)[C@H](OC(=O)N3CCC(=O)C3)[C@@H]1C)[C@@H]2C)C4=O` [Example 61], the MIC in test [1] lay in the range of 0.25 to 62 µg/mL (≈ 0.281 to 69.7 µM); in test [2], 0.002 to 1.95 µg/mL (≈ 0.00225 to 2.19 µM).

`CNC(=O)O[C@H]1[C@H](C)[C@H](O)[C@H](C)[C@@H](O)[C@@H](C)/C=C/C=C(/C)C(=O)NC2=C(N3CCOCC3)C(=O)c3c(c(O)c(C)c4c3C(=O)[C@@](C)(O/C=C/[C@H](OC)[C@H]1C)O4)C2=O` [Example 21, 25-O-Desacetyl-(carbonyl-methylamino) 3-morpholino rifamycin S]: the MIC in test [1] (setting [4]) was 0.25 to 62 µg/mL (≈ 0.314 to 77.9 µM); in test [2] (setting [5]) it was 0.002 to 1.95 µg/mL (≈ 0.00251 to 2.45 µM); in test [3], 0.063 to 31 µg/mL.

Take `CO[C@H]1/C=C/O[C@@]2(C)Oc3c(C)c(O)c4c(c3C2=O)C(=O)C(N2CCOCC2)=C(NC(=O)/C(C)=C\C=C\[C@H](C)[C@H](O)[C@@H](C)[C@@H](O)[C@@H](C)[C@H](OC(=O)NCc2ccccc2)[C@@H]1C)C4=O` [Example 15, 25-O-Desacetyl (carbonyl-benzyl) 3-morpholino rifamycin S]: the MIC in test [1] (setting [4]) was in the range of 0.25 to 62 µg/mL (≈ 0.287 to 71.1 µM); in test [2] (setting [5]) it was 0.002 to 1.95 µg/mL (≈ 0.00229 to 2.24 µM); in test [3] it was 0.063 to 31 µg/mL.

In the case of `CO[C@H]1/C=C/O[C@@]2(C)Oc3c(C)c(O)c4c(c3C2=O)C(=O)C(N2CCOCC2)=C(NC(=O)/C(C)=C\C=C\[C@H](C)[C@H](O)[C@@H](C)[C@@H](O)[C@@H](C)[C@H](OC(=O)N(CCN(C)C)Cc2ccccc2)[C@@H]1C)C4=O` [Example 37, 25-O-Desacetyl-(carbonyl-N′-benzyl-N,N-dimethyl-ethane-1,2-diamino) 3-morpholino rifamycin S], the MIC in test [1] (setting [4]) was in the range of 0.25 to 62 µg/mL (≈ 0.265 to 65.7 µM); in test [2] (setting [5]), 0.002 to 1.95 µg/mL (≈ 0.00212 to 2.07 µM); in test [3], 0.063 to 31 µg/mL.

For the compound `CCN1CC2CN(C(=O)O[C@H]3[C@H](C)[C@H](O)[C@H](C)[C@@H](O)[C@@H](C)/C=C/C=C(/C)C(=O)NC4=C(N5CCOCC5)C(=O)c5c(c(O)c(C)c6c5C(=O)[C@@](C)(O/C=C/[C@H](OC)[C@H]3C)O6)C4=O)CC2C1` (some centres unmarked) [Example 29, 25-O-Desacetyl-(carbonyl-2-ethyl-octahydro-pyrrolo[3,4-c]pyrrole) 3-morpholino rifamycin S], the minimum inhibitory concentration (MIC) in test [1] (setting [4]) was 0.25 to 62 µg/mL (≈ 0.276 to 68.5 µM); in test [2] (setting [5]), 0.002 to 1.95 µg/mL (≈ 0.00221 to 2.15 µM); in test [3], 0.063 to 31 µg/mL.

As to `CO[C@H]1/C=C/O[C@@]2(C)Oc3c(C)c(O)c4c(c3C2=O)C(=O)C(N2CCOCC2)=C(NC(=O)/C(C)=C\C=C\[C@H](C)[C@H](O)[C@@H](C)[C@@H](O)[C@@H](C)[C@H](OC(=O)N2CCCC2)[C@@H]1C)C4=O` [Example 14, 25-O-Desacetyl-(carbonyl-1-pyrrolidino) 3-morpholino rifamycin S], the MIC in test [1] (setting [4]) was 0.25 to 62 µg/mL (≈ 0.299 to 74.2 µM); in test [2] (setting [5]), 0.002 to 1.95 µg/mL (≈ 0.00239 to 2.33 µM); in test [3], 0.063 to 31 µg/mL.

`COc1c(N2CCN(C(=O)C3CN(C(=O)O[C@H]4[C@H](C)[C@H](O)[C@H](C)[C@@H](O)[C@@H](C)/C=C/C=C(/C)C(=O)NC5=C(N6CCOCC6)C(=O)c6c(c(O)c(C)c7c6C(=O)[C@@](C)(O/C=C/[C@H](OC)[C@H]4C)O7)C5=O)C3)CC2)c(F)cc2c(=O)c(C(=O)O)cn(C3CC3)c12` [Example 66]: the MIC in test [1] (setting [4]) was in the range of 0.25 to 62 µg/mL (≈ 0.207 to 51.3 µM); in test [2] (setting [5]), 0.002 to 1.95 µg/mL (≈ 0.00165 to 1.61 µM); in test [3] it was 0.063 to 31 µg/mL.

For the compound `CO[C@H]1/C=C/O[C@@]2(C)Oc3c(C)c(O)c4c(c3C2=O)C(=O)C(N2CCOCC2)=C(NC(=O)/C(C)=C\C=C\[C@H](C)[C@@H]2OC(C)(C)O[C@@H]([C@@H](C)[C@H](OC(=O)N3CCC(=O)CC3)[C@@H]1C)[C@@H]2C)C4=O` [Example 54, 25-O-Desacetyl-(carbonyl-N-(4-piperidone)) cyclic-21,23-(1-methylethylideneacetal) 3-morpholino rifamycin S], the MIC was 0.25 to 62 µg/mL (≈ 0.277 to 68.6 µM) in test [1] and 0.002 to 1.95 µg/mL (≈ 0.00221 to 2.16 µM) in test [2].

`CO[C@H]1/C=C/O[C@@]2(C)Oc3c(C)c(O)c4c(c3C2=O)C(=O)C(N2CCOCC2)=C(NC(=O)/C(C)=C\C=C\[C@H](C)[C@H](O)[C@@H](C)[C@@H](O)[C@@H](C)[C@H](OC(=O)NCc2ccc(Cl)cc2)[C@@H]1C)C4=O` [Example 22, 25-O-Desacetyl-(carbonyl-4-chlorobenzyl) 3-morpholino rifamycin S]: the results for the MIC in test [1] (setting [4]), in test [2] (setting [5]) and in test [3] were 0.25 to 62 µg/mL (≈ 0.276 to 68.4 µM), 0.002 to 1.95 µg/mL (≈ 0.00221 to 2.15 µM) and 0.063 to 31 µg/mL, respectively.

`COc1cncc(NC(=O)c2ccc(N3CCNCC3)c(C(F)(F)F)c2)c1` [Example 52, N-(5-Methoxy-pyridin-3-yl)-4-piperazin-1-yl-3-trifluoromethyl-benzamide]: the results for the MIC in test [1] and in test [2] were 0.25 to 62 µg/mL (≈ 0.657 to 163 µM) and 0.002 to 1.95 µg/mL (≈ 0.00526 to 5.13 µM), respectively.

For `CO[C@H]1/C=C/O[C@@]2(C)Oc3c(C)c(O)c4c(c3C2=O)C(=O)C(N2CCOCC2)=C(NC(=O)/C(C)=C\C=C\[C@H](C)[C@H](O)[C@@H](C)[C@@H](O)[C@@H](C)[C@H](OC(=O)NCc2cccc3ccccc23)[C@@H]1C)C4=O` [Example 23, 25-O-Desacetyl-(carbonyl-naphthalen-1-ylmethyl-amino) 3-morpholino rifamycin S], the MIC in test [1] was in the range of 0.25 to 62 µg/mL (≈ 0.271 to 67.2 µM); in test [2], 0.002 to 1.95 µg/mL (≈ 0.00217 to 2.11 µM).
